The source of these data is patent US11427581B2, “JAK inhibitor and use thereof” (ZHUHAI UNITED LABORATORIES CO., LTD., priority 2018, dated 2022).

Where two headings read alike, the source gives them in different places. Some results are limits rather than exact numbers.

One data set has as its target TYK2 (h) (Homo sapiens (Human), UniProt P29597). In words: In vitro activity assay of TYK2 kinase (radiometric 33P-ATP, Eurofins). To be noted: recombinant human TYK2. Format: biochemical. The procedure:
(§1) Recombinant human-derived JAK1, JAK2, JAK3, Tyk2 protease, main instruments and reagents were provided by Eurofins in the UK
(§2) JAK2, JAK3 and TYK2 dilution: 20 mM MOPS, 1 mM EDTA, 0.01% Brij-35.5% glycerol, 0.1% β-mercaptoethanol. 1 mg/mL BSA; JAK1 dilution: 20 mM TRIS, 0.2 mM EDTA, 0.1% β-mercaptoethanol, 0.01% Brij-35.5% glycerol. All compounds were prepared as 100% DMSO solutions, and the concentration of the compound reached 50 times the final measured concentration. The test compound was diluted with a 3-fold concentration gradient, the final concentration was 10 μM to 0.001 μM in total 9 concentrations, and the content of DMSO in the detection reaction was 2%. The working stock solution of the compound was added to the wells as the first component of the reaction, and then the remaining components were added according to the protocol detailed below.
TYK2 (h) was incubated with 8 mM MOPS pH 7.0, 0.2 mM EDTA, 250 μM […], 10 mM magnesium acetate and [γ-^33P]-ATP (activity and concentration were formulated as needed). Mg/ATP mixture was added to initiate the reaction. After incubating at room temperature for 40 minutes, the reaction mixture was added with 0.5% phosphoric acid to stop the reaction. Then 10 μL reaction was spotted on a P30 filter pad and washed with 0.425% phosphoric acid three times and methanol once over 4 minutes, dried, and counted scintillation.
(§3) The IC50 results were analyzed by XLFIT5 (205 formula) of IDBS Company, see Table 1 for details.

Data set [1] in a line: Pharmacokinetic (PK) assay in rat. Format: in vivo. To be noted: male SD rat; for Bioavailability: gavage vs tail vein; for Cmax: read-out: Cmax (peak concentration). The protocol:
The clear solution obtained by dissolving the test compound was injected into male mice (C57BL/6) or rats (SD) by tail vein and gavage respectively (overnight fasting, 7-8 weeks old). […] The drug concentration on blood was determined by LC-MS/MS, the related pharmacokinetic parameters were calculated by the linear logarithm trapezoid method of non atrioventricular model by WinNonlin™ Version 6.3.

The target of the next data set is JAK3 (h) (Homo sapiens (Human), UniProt P52333). The experiment in a line: In vitro activity assay of JAK3 kinase (radiometric 33P-ATP, Eurofins). Type of data set: biochemical. To be noted: recombinant human JAK3. The procedure:
as §1, §2
JAK3 (h) was incubated with 8 mM MOPS pH 7.0, 0.2 mM EDTA, 500 μM […], 10 mM magnesium acetate and [γ-^33P]-ATP (activity and concentration were formulated as needed). Mg/ATP mixture was added to initiate the reaction. After incubating at room temperature for 40 minutes, the reaction mixture was added with 0.5% phosphoric acid to stop the reaction. Then 10 μL the reaction solution was spotted on a P30 filter pad and washed with 0.425% phosphoric acid three times and methanol once over 4 minutes, dried, and counted scintillation.
as §3

Another data set deals with JAK2 (h) (Homo sapiens (Human), UniProt O60674). In words: In vitro activity assay of JAK2 kinase (radiometric 33P-ATP, Eurofins). The settings on record: recombinant human JAK2. Format: biochemical.
For the next data set, the target named is JAK1 (h) (Homo sapiens (Human), UniProt P23458). In words: In vitro activity assay of JAK1 kinase (radiometric 33P-ATP, Eurofins). Format: biochemical. The settings on record: recombinant human JAK1.
In data set [2] the test system is adjuvant-induced arthritis rat model. The experiment in a line: In vivo drug efficacy study in an adjuvant-induced arthritis model (AIA). To be noted: for average foot volume of arthritis rat: vehicle 2.8 mL.
[3] abbreviates: tail vein and gavage groups, route of the parameter and dose not given.
Where [4] appears, read: 15 mg/kg p.o. bid 14 d, end of the experiment (27th day).
Setting [5] is: 15 mpk p.o. bid 14 d, end of the experiment (27th day), vehicle peak about 8.5.

JAK3 (h), sequence (P52333 whole entry): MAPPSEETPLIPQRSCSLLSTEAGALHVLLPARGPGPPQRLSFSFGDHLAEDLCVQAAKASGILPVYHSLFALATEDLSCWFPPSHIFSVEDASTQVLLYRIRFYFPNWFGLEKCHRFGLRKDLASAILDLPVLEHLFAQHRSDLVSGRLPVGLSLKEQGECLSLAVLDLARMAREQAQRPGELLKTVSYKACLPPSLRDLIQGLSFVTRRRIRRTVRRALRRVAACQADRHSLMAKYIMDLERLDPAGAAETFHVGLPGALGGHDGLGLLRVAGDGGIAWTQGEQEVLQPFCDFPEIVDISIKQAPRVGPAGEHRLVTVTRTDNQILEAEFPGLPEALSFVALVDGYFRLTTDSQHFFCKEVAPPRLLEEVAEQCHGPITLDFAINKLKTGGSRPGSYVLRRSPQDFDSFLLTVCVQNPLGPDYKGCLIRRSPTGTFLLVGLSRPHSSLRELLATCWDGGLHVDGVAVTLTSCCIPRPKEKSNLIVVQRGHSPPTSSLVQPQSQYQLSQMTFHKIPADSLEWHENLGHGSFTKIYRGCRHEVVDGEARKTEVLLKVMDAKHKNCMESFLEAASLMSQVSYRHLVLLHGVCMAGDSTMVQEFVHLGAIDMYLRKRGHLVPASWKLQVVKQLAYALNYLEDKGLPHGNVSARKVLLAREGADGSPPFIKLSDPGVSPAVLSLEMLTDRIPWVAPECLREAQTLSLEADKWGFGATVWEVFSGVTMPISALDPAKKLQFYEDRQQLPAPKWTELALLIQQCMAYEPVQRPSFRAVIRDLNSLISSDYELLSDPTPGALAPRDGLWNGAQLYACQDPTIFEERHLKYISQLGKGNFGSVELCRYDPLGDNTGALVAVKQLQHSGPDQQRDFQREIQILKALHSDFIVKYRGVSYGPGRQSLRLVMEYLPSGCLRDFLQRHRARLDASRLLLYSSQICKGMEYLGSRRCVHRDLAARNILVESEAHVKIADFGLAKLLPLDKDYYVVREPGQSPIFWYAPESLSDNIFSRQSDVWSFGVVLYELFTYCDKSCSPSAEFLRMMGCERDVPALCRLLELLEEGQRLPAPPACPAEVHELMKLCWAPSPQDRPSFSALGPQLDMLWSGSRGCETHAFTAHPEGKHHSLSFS
TYK2 (h), sequence (P29597 whole entry): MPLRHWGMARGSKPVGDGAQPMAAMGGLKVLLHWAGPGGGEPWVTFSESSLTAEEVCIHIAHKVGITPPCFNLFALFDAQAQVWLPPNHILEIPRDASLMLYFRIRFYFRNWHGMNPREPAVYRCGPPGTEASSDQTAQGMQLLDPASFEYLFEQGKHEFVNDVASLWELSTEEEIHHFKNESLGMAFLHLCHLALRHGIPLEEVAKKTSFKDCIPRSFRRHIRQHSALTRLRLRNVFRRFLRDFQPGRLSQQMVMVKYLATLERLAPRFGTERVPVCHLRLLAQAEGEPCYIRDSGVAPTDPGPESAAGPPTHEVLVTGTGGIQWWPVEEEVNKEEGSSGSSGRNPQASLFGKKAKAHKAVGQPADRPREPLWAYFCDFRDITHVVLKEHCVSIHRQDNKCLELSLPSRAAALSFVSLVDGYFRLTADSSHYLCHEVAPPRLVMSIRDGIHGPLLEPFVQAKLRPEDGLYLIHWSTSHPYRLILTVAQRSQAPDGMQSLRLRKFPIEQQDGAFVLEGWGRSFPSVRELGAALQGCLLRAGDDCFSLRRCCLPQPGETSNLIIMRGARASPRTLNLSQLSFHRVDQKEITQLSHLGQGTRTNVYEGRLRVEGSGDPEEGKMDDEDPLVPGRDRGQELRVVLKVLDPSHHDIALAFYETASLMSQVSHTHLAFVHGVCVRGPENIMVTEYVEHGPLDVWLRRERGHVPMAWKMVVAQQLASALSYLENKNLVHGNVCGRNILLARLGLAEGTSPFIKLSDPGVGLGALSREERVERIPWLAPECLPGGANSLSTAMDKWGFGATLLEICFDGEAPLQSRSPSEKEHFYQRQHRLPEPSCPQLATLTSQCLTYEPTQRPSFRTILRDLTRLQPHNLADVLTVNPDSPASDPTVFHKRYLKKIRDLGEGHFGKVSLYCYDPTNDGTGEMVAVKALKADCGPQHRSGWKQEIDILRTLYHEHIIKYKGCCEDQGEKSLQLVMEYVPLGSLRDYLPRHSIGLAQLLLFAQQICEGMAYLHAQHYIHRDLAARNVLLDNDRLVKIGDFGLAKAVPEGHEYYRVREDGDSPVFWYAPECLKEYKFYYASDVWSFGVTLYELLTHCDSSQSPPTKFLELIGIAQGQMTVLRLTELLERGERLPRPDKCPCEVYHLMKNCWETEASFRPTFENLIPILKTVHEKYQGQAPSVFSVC
JAK2 (h), sequence (O60674 whole entry): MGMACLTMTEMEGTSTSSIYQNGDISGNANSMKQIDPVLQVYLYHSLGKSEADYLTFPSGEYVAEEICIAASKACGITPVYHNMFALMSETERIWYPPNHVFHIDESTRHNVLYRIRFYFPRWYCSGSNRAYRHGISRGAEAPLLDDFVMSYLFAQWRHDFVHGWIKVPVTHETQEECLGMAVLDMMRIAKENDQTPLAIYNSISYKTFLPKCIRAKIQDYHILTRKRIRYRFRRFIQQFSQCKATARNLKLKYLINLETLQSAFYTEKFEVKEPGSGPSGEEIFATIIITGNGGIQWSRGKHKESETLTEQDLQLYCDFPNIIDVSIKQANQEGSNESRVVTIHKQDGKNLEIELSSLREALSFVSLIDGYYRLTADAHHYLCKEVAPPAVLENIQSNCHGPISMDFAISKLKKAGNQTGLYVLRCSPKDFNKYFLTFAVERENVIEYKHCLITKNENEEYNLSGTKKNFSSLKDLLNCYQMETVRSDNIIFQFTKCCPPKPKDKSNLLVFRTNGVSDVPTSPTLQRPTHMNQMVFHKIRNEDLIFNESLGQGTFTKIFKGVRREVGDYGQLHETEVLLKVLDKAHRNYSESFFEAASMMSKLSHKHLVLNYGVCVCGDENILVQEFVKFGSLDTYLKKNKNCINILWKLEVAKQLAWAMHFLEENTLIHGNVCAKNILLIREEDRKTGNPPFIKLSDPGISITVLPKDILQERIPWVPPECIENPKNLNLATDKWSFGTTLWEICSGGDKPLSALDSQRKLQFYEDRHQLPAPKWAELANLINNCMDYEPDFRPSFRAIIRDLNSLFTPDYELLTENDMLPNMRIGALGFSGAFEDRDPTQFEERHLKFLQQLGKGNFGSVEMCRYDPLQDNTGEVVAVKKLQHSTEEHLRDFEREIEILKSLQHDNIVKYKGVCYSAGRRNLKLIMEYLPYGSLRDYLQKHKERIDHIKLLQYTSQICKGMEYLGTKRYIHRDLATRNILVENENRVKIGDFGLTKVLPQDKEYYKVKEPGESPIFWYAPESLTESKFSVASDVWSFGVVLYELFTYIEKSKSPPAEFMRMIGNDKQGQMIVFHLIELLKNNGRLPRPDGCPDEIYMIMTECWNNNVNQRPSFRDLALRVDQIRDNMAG
JAK1 (h), sequence (P23458 whole entry): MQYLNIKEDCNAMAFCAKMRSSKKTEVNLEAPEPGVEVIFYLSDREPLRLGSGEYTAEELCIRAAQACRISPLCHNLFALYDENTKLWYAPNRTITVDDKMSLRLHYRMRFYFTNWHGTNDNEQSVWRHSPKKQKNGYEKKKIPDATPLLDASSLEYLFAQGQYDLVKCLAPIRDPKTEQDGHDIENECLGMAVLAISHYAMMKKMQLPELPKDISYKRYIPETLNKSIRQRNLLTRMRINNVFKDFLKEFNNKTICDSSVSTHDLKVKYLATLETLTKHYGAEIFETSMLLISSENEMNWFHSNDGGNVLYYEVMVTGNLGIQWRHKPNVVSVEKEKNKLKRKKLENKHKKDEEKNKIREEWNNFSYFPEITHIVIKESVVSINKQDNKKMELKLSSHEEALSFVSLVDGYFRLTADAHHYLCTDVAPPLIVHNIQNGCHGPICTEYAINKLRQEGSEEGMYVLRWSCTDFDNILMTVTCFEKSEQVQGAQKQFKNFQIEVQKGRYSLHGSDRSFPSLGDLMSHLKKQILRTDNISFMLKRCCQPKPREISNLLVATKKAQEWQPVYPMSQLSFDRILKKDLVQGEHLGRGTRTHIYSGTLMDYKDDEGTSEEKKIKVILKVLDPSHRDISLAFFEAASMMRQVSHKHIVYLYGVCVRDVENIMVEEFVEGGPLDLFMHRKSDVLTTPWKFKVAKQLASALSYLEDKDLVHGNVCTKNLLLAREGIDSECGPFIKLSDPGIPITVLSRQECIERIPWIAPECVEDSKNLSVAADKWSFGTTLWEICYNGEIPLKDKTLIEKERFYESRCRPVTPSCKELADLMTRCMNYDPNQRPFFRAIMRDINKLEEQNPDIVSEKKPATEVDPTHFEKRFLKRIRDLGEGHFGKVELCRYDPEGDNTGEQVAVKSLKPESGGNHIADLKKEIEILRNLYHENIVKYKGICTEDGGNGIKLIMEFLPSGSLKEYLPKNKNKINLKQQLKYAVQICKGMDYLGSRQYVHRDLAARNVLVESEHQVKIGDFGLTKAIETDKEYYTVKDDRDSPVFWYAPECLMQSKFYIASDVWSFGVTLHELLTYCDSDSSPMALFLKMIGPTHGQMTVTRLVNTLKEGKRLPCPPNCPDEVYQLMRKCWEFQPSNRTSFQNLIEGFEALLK

Regarding `O=C(Nc1nc2cccc(C3=CCC(NC(=O)C4CC4(F)F)CC3)n2n1)C1CC1` (centres unmarked) [Compound 1-7], the IC50 at TYK2 (h) came to 73 nM. The compound further came in with a Bioavailability in data set [1] of 75.2%. For the same compound, in data set [1] (setting [3]), the AUC0-inf was 18.033 µM·h, the “T1/2 (half-life)” value came to 2.07 h and the Cmax is 23.9 µM. Besides, the IC50 on JAK3 (h) worked out at 3110 nM. The IC50 at JAK2 (h) came out at 239 nM.
Turning to `O=C(Nc1nc2cccc(C3=CCN(C(=O)C4CC4)CC3)n2n1)C1CC1` [Compound 5-4], the IC50 at TYK2 (h) is 178 nM; at JAK3 (h) it was greater than 10000 nM; on JAK2 (h), 422 nM; at JAK1 (h) it was 90 nM.
The corresponding values for `O=C(Nc1nc2nccc(C3CCC(NC(=O)C4CC4(F)F)CC3)c2s1)C1CC1` (centres unmarked) [Compound 10-9] are 245 nM, greater than 10000 nM, greater than 10000 nM and 2290 nM.
With `O=C(Nc1nc2cccc(C3CCC(NC(=O)[C@H]4CC4(F)F)CC3)n2n1)C1CC1` (single isomer, unassigned) [Compound 8-2], the IC50 was 24 nM at TYK2 (h), 957 nM on JAK3 (h) and 2 nM at JAK1 (h). The “inhibition rate relative to the vehicle control group (foot volume curve AUC)” value stood at 38.0% in data set [2] (5 mg/kg p.o. bid 14 d) and 44.5% in data set [2] (15 mg/kg p.o. bid 14 d). In addition, the “average foot volume of arthritis rat” value in data set [2] (5 mg/kg p.o. bid 14 d, end of the experiment (27th day)) came to 1.4 mL; in data set [2] (setting [4]), 1.1 mL. The “clinical score of arthritis rats” value in data set [2] (5 mpk p.o. bid 14 d, end of the experiment (27th day), vehicle peak about 8.5) was 2.7; in data set [2] (setting [5]), 1.0. Further, the “body weight of arthritis rats” value in data set [2] (dose groups 5 and 15 mg/kg p.o. bid, weight decreased from the 15th to the 17th day) is recorded as “began to recover slowly on the 19th day”.
With `O=C(Nc1nc2cccc(C3=CC[C@@H](NC(=O)[C@@H]4CC4(F)F)CC3)n2n1)C1CC1` [Compound 3-1], the IC50 at TYK2 (h) was determined as 78 nM. For the same compound, the Bioavailability in data set [1] amounted to 30.0%. Also, in data set [1] (setting [3]), the AUC0-inf was 19.967 µM·h, the “T1/2 (half-life)” value is 3.11 h and the Cmax came out at 3.8 µM. In addition, at JAK3 (h), the IC50 stood at 5520 nM. The IC50 on JAK2 (h) came out at 141 nM.
In the case of `O=C(Nc1nc2cccc(C3CCC(NC(=O)C4CC4(F)F)CC3)n2n1)C1CC1` (centres unmarked) [Compound 4-2], the IC50 at TYK2 (h) worked out at 10 nM. Also, the Bioavailability in data set [1] is reported as 58.6%. In data set [1] (setting [3]), the AUC0-inf stood at 11.021 µM·h, the “T1/2 (half-life)” value was determined as 2.22 h and the Cmax was 13.4 µM. At JAK3 (h), the IC50 was found to be 2050 nM.
With `O=C(Nc1nc2cccc(C3=CC[C@H](NC(=O)[C@H]4CC4(F)F)CC3)n2n1)C1CC1` [Compound 3-4], the IC50 at TYK2 (h) was determined as 71 nM; on JAK3 (h), 2550 nM; on JAK2 (h), 126 nM; on JAK1 (h) it was 17 nM.
For the compound `O=C(Nc1nc2cccc(C3=CCC(NC(=O)C4CC4)CC3)n2n1)C1CC1` (centres unmarked) [Compound 1-12], the IC50 was 497 nM at TYK2 (h), greater than 10000 nM at JAK3 (h), 1420 nM on JAK2 (h) and 149 nM on JAK1 (h).
As to `O=C(Nc1nc2cccc(C3=CCN(C(=O)C4CC4(F)F)C3)n2n1)C1CC1` (centres unmarked) [Compound 6-1], the IC50 is 244 nM on TYK2 (h), greater than 10000 nM at JAK3 (h) and 70 nM on JAK1 (h).
As for `O=C(Nc1nc2cccc(C3=CC[C@@H](NC(=O)[C@H]4CC4(F)F)CC3)n2n1)C1CC1` [Compound 3-2], the concentration for half-maximal inhibition (IC50) was 1370 nM at TYK2 (h) and 163 nM on JAK1 (h).
Consider `O=C(Nc1nc2cccc(C3=CCN(C(=O)C4(F)CC4)C3)n2n1)C1CC1` [Compound 6-2], for which the IC50 was 2870 nM on TYK2 (h), greater than 10000 nM at JAK3 (h), 1120 nM at JAK2 (h) and 531 nM on JAK1 (h).
The corresponding values for `O=C(Nc1nc2cccc(C3CCC(NC(=O)[C@@H]4CC4(F)F)CC3)n2n1)C1CC1` (single isomer, unassigned) [Compound 8-3] are 3440 nM, greater than 10000 nM, 5770 nM and 494 nM.
For the compound `O=C(Nc1nc2cccc(C3=CC[C@H](NC(=O)[C@@H]4CC4(F)F)CC3)n2n1)C1CC1` [Compound 3-3], the IC50 on TYK2 (h) was determined as 942 nM; at JAK1 (h) it was 166 nM.
Regarding `O=C(Nc1nc2cccc(C3CCC(NC(=O)[C@H]4CC4(F)F)CC3)n2n1)C1CC1` (single isomer, unassigned) [Compound 8-4], the IC50 was 2440 nM at TYK2 (h), greater than 10000 nM on JAK3 (h), 3750 nM at JAK2 (h) and 442 nM at JAK1 (h).
`C[C@@H]1C[C@H]2[C@@H]3CCC4=CC(=O)C=C[C@]4(C)[C@@]3(F)[C@@H](O)C[C@]2(C)[C@@]1(O)C(=O)CO` [Dexamethasone, reference compound]: the “inhibition rate relative to the vehicle control group (foot volume curve AUC)” value in data set [2] (0.3 mg/kg p.o. qd 14 d) is listed as 44.9%. Also, the “average foot volume of arthritis rat” value in data set [2] (0.3 mg/kg p.o. qd 14 d, end of the experiment) turned out to be 1.1 mL. Moreover, the “clinical score of arthritis rats” value in data set [2] (0.3 mg/kg p.o. qd 14 d, from the 23rd day until the end of the experiment) was “about 2.0”.
For `O=C(Nc1nc2cccc(C3CCC(NC(=O)C4(F)CC4)CC3)n2n1)C1CC1` (centres unmarked) [Compound 4-3], the IC50 came to 127 nM on TYK2 (h), 4380 nM at JAK3 (h), 360 nM on JAK2 (h) and 31 nM at JAK1 (h). The Bioavailability in data set [1] (blood, po, read-out: Bioavailability) amounted to 89.8%. Further, the AUC0-inf in data set [1] (blood, po, tail vein and gavage groups, route of the parameter and dose not given, read-out: AUC0-inf) worked out at 85.8 µM·h. Besides, the Cmax in data set [1] (blood, po, tail vein and gavage groups, route of the parameter and dose not given) is 24.8 µM. In data set [1] (blood, po, tail vein and gavage groups, route of the parameter and dose not given, read-out: T1/2 (half-life) (converted)), the half-life was 2.86 h. Further, the “average foot volume of arthritis rat” value in data set [2] (setting [4]) is 1.5 mL. Further, the “clinical score of arthritis rats” value in data set [2] (setting [5]) was found to be 2.6. Also, in data set [2] (Rattus norvegicus, po, 336 h, 15 mg/kg p.o. bid 14 d, read-out: inhibition rate relative to the vehicle control group (foot volume curve AUC)), the inhibition at 15 mg/kg was found to be 32.3%.
In the case of `O=C(Nc1nc2cccc(C3CCC(NC(=O)[C@@H]4CC4(F)F)CC3)n2n1)C1CC1` (single isomer, unassigned) [Compound 8-1], the IC50 on TYK2 (h) is 633 nM; at JAK3 (h), greater than 10000 nM; on JAK2 (h), 861 nM; on JAK1 (h), 111 nM.
